Source: patent publication US7300946B2, “N-(substituted arylmethyl)-4-(disubstituted methyl) piperidines and pyridines” (Bayer CropScience AG, priority 2002, dated 2007)

System: tobacco budworm (Heliothis virescens [Fabricius])
Assay: surface-treated diet test against the tobacco budworm
Assay type: in vivo
Conditions: tobacco budworm second instar larvae, surface-treated diet, 0.25 millimoles of candidate insecticide on the surface of the diet, five-day exposure; for Percent Mortality: compared to total number of insects infested; for Percent Growth Inhibition: inhibition of insect weight relative to untreated controls
How it was run: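 Wheat germ artificial diet surface-treated with 40 µL of 50 mM DMSO stock diluted 1:7 in 1:1 water/acetone (0.25 millimolar on diet), or sub-multiples for rate tests. One second-instar larva per well, 25° C, 60% RH, 5 days; percent weight inhibition vs DMSO controls and percent mortality.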

SMILES | Percent Mortality | Percent Growth Inhibition
CCn1nnc(-c2ccc(CN3CCC(C(OC(=O)Nc4cc(F)cc(F)c4)c4ccc(F)c(F)c4)CC3)cc2)n1 (stereo not drawn) [Compound 589] | 100% | 100%
CCn1nnc(-c2ccc(CN3CCC(C(OC(=O)Nc4ccc(Cl)cc4)c4cc(F)cc(F)c4)CC3)cc2)n1 (stereo not drawn) [Compound 590] | 100% | 100%
CCn1nnc(-c2ccc(CN3CCC(C(OC(=O)Nc4ccc(Cl)c(Cl)c4)c4cc(F)cc(F)c4)CC3)cc2)n1 (stereo not drawn) [Compound 591] | 100% | 100%
CCn1nnc(-c2ccc(CN3CCC(C(OC(=O)Nc4cc(F)cc(F)c4)c4cc(F)cc(F)c4)CC3)cc2)n1 (stereo not drawn) [Compound 593] | 100% | 100%
CCn1nnc(-c2ccc(CN3CCC(C(OC(=O)Nc4ccc(C(F)(F)F)cc4)c4cc(F)cc(F)c4)CC3)cc2)n1 (stereo not drawn) [Compound 594] | 100% | 100%
CCn1nnc(-c2ccc(CN3CCC(C(OC(=O)Nc4ccc(Cl)cc4)c4ccc(C)cc4)CC3)cc2)n1 (stereo not drawn) [Compound 595] | 100% | 100%
CCn1nnc(-c2ccc(CN3CCC(C(OC(=O)Nc4ccc(Cl)c(Cl)c4)c4ccc(C)cc4)CC3)cc2)n1 (stereo not drawn) [Compound 596] | 100% | 100%
CCn1nnc(-c2ccc(CN3CCC(C(OC(=O)Nc4ccc(F)c(F)c4)c4ccc(C)cc4)CC3)cc2)n1 (stereo not drawn) [Compound 597] | 100% | 100%
CCn1nnc(-c2ccc(CN3CCC(C(OC(=O)Nc4cc(F)cc(F)c4)c4ccc(C)cc4)CC3)cc2)n1 (stereo not drawn) [Compound 598] | 100% | 100%
CCn1nnc(-c2ccc(CN3CCC(C(OC(=O)Nc4cccc(C(F)(F)F)c4)c4ccc(C)cc4)CC3)cc2)n1 (stereo not drawn) [Compound 599] | 100% | 100%
CCn1nnc(-c2ccc(CN3CCC(C(OC(=O)Nc4ccc(C(F)(F)F)cc4)c4ccc(C)cc4)CC3)cc2)n1 (stereo not drawn) [Compound 600] | 100% | 100%
CCn1nnc(-c2ccc(CN3CCC(C(OC(=O)Nc4ccc(Cl)cc4)c4ccc(OC)cc4)CC3)cc2)n1 (stereo not drawn) [Compound 601] | 100% | 100%
CCn1nnc(-c2ccc(CN3CCC(C(OC(=O)Nc4ccc(Cl)c(Cl)c4)c4ccc(OC)cc4)CC3)cc2)n1 (stereo not drawn) [Compound 602] | 100% | 100%
CCn1nnc(-c2ccc(CN3CCC(C(OC(=O)Nc4ccc(F)c(F)c4)c4ccc(OC)cc4)CC3)cc2)n1 (stereo not drawn) [Compound 603] | 100% | 100%
CCn1nnc(-c2ccc(CN3CCC(C(OC(=O)Nc4cc(F)cc(F)c4)c4ccc(OC)cc4)CC3)cc2)n1 (stereo not drawn) [Compound 604] | 100% | 100%
CCn1nnc(-c2ccc(CN3CCC(C(OC(=O)Nc4cccc(C(F)(F)F)c4)c4ccc(OC)cc4)CC3)cc2)n1 (stereo not drawn) [Compound 605] | 100% | 100%
CCn1nnc(-c2ccc(CN3CCC(C(OC(=O)Nc4ccc(C(F)(F)F)cc4)c4ccc(OC)cc4)CC3)cc2)n1 (stereo not drawn) [Compound 606] | 100% | 100%
CCn1nnc(-c2ccc(CN3CCC(C(OC(=O)Nc4ccc(-c5ccccc5)cc4)c4ccc(OC)cc4)CC3)cc2)n1 (stereo not drawn) [Compound 607] | 100% | 100%
